Test results reported in patent publication US9079919B2 (HOFFMANN-LA ROCHE INC., priority 2011, dated 2015).

Legend:
BACE1 = biological target: T1, BACE1 (Homo sapiens, UniProt P56817); test: Cellular Aβ-lowering assay a) (Aβ40 ELISA); format: cell-based; conditions: cellular assay a): HEK293 cells expressing human APP695, Aβ40 in supernatant by ELISA after 18-20 hrs; read-out: BACE1 cell act. Aβ40 IC50
T1 construct: Human HEK293 cells which are stably transfected with a vector expressing a cDNA of the human APP wt gene (APP695); endogenous in cells; host or cells: HEK293 cells stably transfected with human APP695 (wt)
T1 sequence (P56817 46-501): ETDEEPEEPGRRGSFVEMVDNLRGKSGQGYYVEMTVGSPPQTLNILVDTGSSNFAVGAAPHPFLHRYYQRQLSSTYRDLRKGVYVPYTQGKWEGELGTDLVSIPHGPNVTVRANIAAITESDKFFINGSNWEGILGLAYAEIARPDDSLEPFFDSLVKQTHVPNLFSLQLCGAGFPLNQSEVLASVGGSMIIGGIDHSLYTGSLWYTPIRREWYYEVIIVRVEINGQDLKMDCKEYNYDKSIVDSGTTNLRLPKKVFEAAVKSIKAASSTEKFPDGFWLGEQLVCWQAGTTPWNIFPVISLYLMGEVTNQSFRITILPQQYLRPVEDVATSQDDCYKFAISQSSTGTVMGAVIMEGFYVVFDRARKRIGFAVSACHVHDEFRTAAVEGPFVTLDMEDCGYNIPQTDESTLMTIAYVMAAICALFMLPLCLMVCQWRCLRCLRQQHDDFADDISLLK
Protocol: a) Human HEK293 cells which are stably transfected with a vector expressing a cDNA of the human APP wt gene (APP695) were used to assess the potency of the compounds in a cellular assay. The cells were seeded in 96-well microtiter plates in cell culture medium (Iscove, plus 10% (v/v) fetal bovine serum, glutamine, penicillin/streptomycin) to about 80% confluence and the compounds were added at a 10× concentration in 1/10 volume of medium without FCS containing 8% DMSO (final concentration of DMSO was kept at 0.8% v/v). After 18-20 hrs incubation at 37° C. and 5% CO2 in a humidified incubator the culture supernatant was harvested for the determination of Aβ40 concentrations. 96 well ELISA plates (e.g., Nunc MaxiSorb) were coated with monoclonal antibody which specifically recognize the C-terminal end of Aβ40 (Brockhaus et al., NeuroReport 9, 1481-1486; 1998). After blocking of non-specific binding sites with e.g. 1% BSA and washing, the culture supernatants were added in suitable dilutions together with a horseradish peroxidase-coupled Aβ detection antibody (e.g., antibody 4G8, Senetek, Maryland Heights, Mo.) and incubated for 5 to 7 hrs. Subsequently the wells of the microtiter plate were washed extensively with Tris-buffered saline containing 0.05% Tween 20 and the assay was developed with tetramethylbenzidine/H2O2 in citric acid buffer. After stopping the reaction with one volume of 1N H2SO4 the reaction was measured in an ELISA reader at 450 nm wavelength. The concentrations of Aβ in the culture supernatants were calculated from a standard curve obtained with known amounts of pure Aβ peptide.

BACE2 = biological target: T2, BACE2 (Rattus norvegicus, UniProt Q6IE75); test: Assay for BACE inhibition by measuring cellular TMEM27 cleavage; format: cell-based; conditions: INS-TMEM27 cells (INS1e-derived), shed human TMEM27 by ELISA; read-out: BACE2 cell act. IC50
T2 construct: endogenous cellular BACE2 in the Ins1e rat cell line; endogenous in cells; host or cells: INS-TMEM27 (INS1e-derived rat cell line with doxycycline-inducible full-length human TMEM27)
T2 sequence (Q6IE75 63-514): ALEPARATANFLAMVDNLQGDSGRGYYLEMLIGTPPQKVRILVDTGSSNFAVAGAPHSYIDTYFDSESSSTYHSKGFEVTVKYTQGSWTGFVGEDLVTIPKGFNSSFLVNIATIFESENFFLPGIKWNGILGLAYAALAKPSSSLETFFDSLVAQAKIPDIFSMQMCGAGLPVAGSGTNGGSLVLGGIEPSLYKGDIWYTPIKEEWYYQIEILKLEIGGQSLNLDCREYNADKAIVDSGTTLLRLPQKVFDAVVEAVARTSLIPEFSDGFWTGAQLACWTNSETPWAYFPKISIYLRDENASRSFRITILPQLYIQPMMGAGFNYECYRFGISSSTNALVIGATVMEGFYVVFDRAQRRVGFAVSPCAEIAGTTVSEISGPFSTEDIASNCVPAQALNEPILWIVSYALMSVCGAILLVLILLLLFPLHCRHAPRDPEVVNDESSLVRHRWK
From the text: The assay uses the principle of inhibition of human TMEM27 cleavage by endogenous cellular BACE2 in the Ins1e rat cell line and shedding from the cell surface into the culture medium, followed by detection in an ELISA assay. Inhibition of BACE2 prevents the cleavage and shedding in a dose-dependent manner.
The stable cell line “INS-TMEM27” represents an INS1e-derived cell line with inducible expression (using the TetOn system) of full-length hTMEM27 in a doxycycline-dependent manner. The cells are cultured throughout the experiment in RPMI1640+ Glutamax (Invitrogen) Penicillin/Streptomycin, 10% Fetal bovine serum, […], […], 100 micrograms/ml G418 and 100 microgram/ml hygromycin and are grown inadherent culture at 37° C. in a standard CO2 cell culture incubator.
INS-TMEM27 cells are seeded in 96-well plates. After 2 days in culture, BACE2 inhibitor is added in a range of concentrations as required by the assay and after a further two hours, doxycycline is added to a final concentration of 500 ng/ml. The cells are incubated for a further 46 hours and the supernatant harvested for detection of shed TMEM27.
An ELISA assay (using a pair of mouse anti-human-TMEM27 antibodies, raised against the extracellular domain of TMEM27) is used for detection of TMEM27 in the culture medium. An EC50 for BACE2 inhibition is calculated using the ELISA readout for each inhibitor concentration with standard curve-fitting software such as XLFit for the Excel spreadsheet program.

Structure (SMILES)	IC50 (BACE1) [nM]	IC50 (BACE2) [nM]
NC1=N[C@@]2(CCCc3ccc(-c4cncc(Cl)c4)cc32)C(F)(F)CO1 [Example 1, (R)-7-(5-Chloropyridin-3-yl)-5′,5′-difluoro-3,4,5′,6′-tetrahydro-2H-spiro[naphthalene-1,4′-[1,3]oxazin]-2′-amine]	100	543
N#Cc1cncc(-c2ccc3c(c2)[C@@]2(CCC3)N=C(N)OCC2(F)F)c1 [Example 2, (R)-5-(2′-Amino-5′,5′-difluoro-3,4,5′,6′-tetrahydro-2H-spiro[naphthalene-1,4′-[1,3]oxazine]-7-yl)nicotinonitrile]	80	526
NC1=N[C@@]2(CCc3ccc(-c4cc(Cl)cc(Cl)c4)cc32)C(F)(F)CO1 [Example 8, (R)-6-(3,5-Dichlorophenyl)-5′,5′-difluoro-2,3,5′,6′-tetrahydrospiro[indene-1,4′-[1,3]oxazin]-2′-amine]	2450	2730
NC1=N[C@@]2(CCc3ccc(-c4cncc(Cl)c4)cc32)C(F)(F)CO1 [Example 9, (R)-6-(5-Chloropyridin-3-yl)-5′,5′-difluoro-2,3,5′,6′-tetrahydrospiro[indene-1,4′-[1,3]oxazin]-2′-amine]	790	3580
N#Cc1ccc(C(=O)Nc2ccc3c(c2)[C@@]2(CCC3)N=C(N)OCC2(F)F)nc1 [Example 13, (R)—N-(2′-Amino-5′,5′-difluoro-3,4,5′,6′-tetrahydro-2H-spiro[naphthalene-1,4′-[1,3]oxazine]-7-yl)-5-cyanopicolinamide]	5	116
CC1(C)CC[C@@]2(N=C(N)OCC2(F)F)c2cc(NC(=O)c3ccc(C#N)cn3)ccc21 [Example 14, (R)—N-(2′-Amino-5′,5′-difluoro-4,4-dimethyl-3,4,5′,6′-tetrahydro-2H-spiro[naphthalene-1,4′-[1,3]oxazine]-7-yl)-5-cyanopicolinamide]	1110	13000
NC1=N[C@@]2(CCOc3ccc(-c4cncc(Cl)c4)cc32)C(F)(F)CO1 [Example 19, (R)-6-(5-Chloropyridin-3-yl)-5′,5′-difluoro-5′,6′-dihydrospiro[chroman-4,4′-[1,3]oxazin]-2′-amine]	380	124
NC1=N[C@@]2(CCOc3ccc(-c4cc(Cl)cc(Cl)c4)cc32)C(F)(F)CO1 [Example 20, (R)-6-(3,5-dichlorophenyl)-5′,5′-difluoro-5′,6′-dihydrospiro[chroman-4,4′-[1,3]oxazin]-2′-amine]	2020	3990
COc1cncc(-c2ccc3c(c2)[C@@]2(CCO3)N=C(N)OCC2(F)F)c1 [Example 22, (R)-5′,5′-difluoro-6-(5-methoxypyridin-3-yl)-5′,6′-dihydrospiro[chroman-4,4′-[1,3]oxazin]-2′-amine]	2780	926
NC1=N[C@@]2(CCSc3ccc(-c4cncc(Cl)c4)cc32)C(F)(F)CO1 [Example 32, (R)-6′-(5-Chloropyridin-3-yl)-5,5-difluoro-5,6-dihydrospiro[[1,3]oxazine-4,4′-thiochroman]-2-amine]	676	1950
NC1=N[C@@]2(CCOc3ccc(NC(=O)c4ccc(Cl)cn4)cc32)C(F)(F)CO1 [Example 33, (R)—N-(2′-Amino-5′,5′-difluoro-5′,6′-dihydrospiro[chroman-4,4′-[1,3]oxazine]-6-yl)-5-chloropicolinamide]	360	986
N#Cc1ccc(C(=O)Nc2ccc3c(c2)[C@@]2(CCO3)N=C(N)OCC2(F)F)nc1 [Example 34, (R)—N-(2′-Amino-5′,5′-difluoro-5′,6′-dihydrospiro[chroman-4,4′-[1,3]oxazine]-6-yl)-5-cyanopicolinamide]	80	1920
NC1=N[C@@]2(CCOc3ccc(NC(=O)c4[nH]ncc4Cl)cc32)C(F)(F)CO1 [Example 35]	1250	–
CC1(C)C[C@@]2(N=C(N)OCC2(F)F)c2cc(NC(=O)c3ccc(Cl)cn3)ccc2O1 [Example 40, (R)—N-(2′-Amino-5′,5′-difluoro-2,2-dimethyl-5′,6′-dihydrospiro[chroman-4,4′-[1,3]oxazine]-6-yl)-5-chloropicolinamide]	2260	–
CC1(C)C[C@@]2(N=C(N)OCC2(F)F)c2cc(NC(=O)c3ccc(C#N)cn3)ccc2O1 [Example 41, (R)—N-(2′-Amino-5′,5′-difluoro-2,2-dimethyl-5′,6′-dihydrospiro[chroman-4,4′-[1,3]oxazine]-6-yl)-5-cyanopicolinamide]	230	–
NC1=N[C@@]2(CCSc3ccc(NC(=O)c4ccc(Cl)cn4)cc32)C(F)(F)CO1 [Example 42, (R)—N-(2-Amino-5,5-difluoro-5,6-dihydrospiro[[1,3]oxazine-4,4′-thiochroman]-6′-yl)-5-chloropicolinamide]	35	438
NC1=N[C@@]2(CCS(=O)(=O)c3ccc(NC(=O)c4ccc(Cl)cn4)cc32)C(F)(F)CO1 [Example 45, N-[(4R)-2-amino-5,5-difluoro-1′,1′-dioxido-2′,3′,5,6-tetrahydrospiro[1,3-oxazine-4,4′-thiochromen]-6′-yl]-5-chloropyridine-2-carboxamide]	6960	–
N#Cc1ccc(C(=O)Nc2ccc3c(c2)[C@@]2(CCS3(=O)=O)N=C(N)OCC2(F)F)nc1 [Example 46, N-[(4R)-2-amino-5,5-difluoro-1′,1′-dioxido-2′,3′,5,6-tetrahydrospiro[1,3-oxazine-4,4′-thiochromen]-6′-yl]-5-cyanoopyridine-2-carboxamide]	3400	–
N#Cc1ccc(C(=O)Nc2ccc3c(c2)[C@@]2(CCC3)N=C(N)COCC2(F)F)nc1 [Example 47, (R)—N-(3′-Amino-6′,6′-difluoro-3,4,6′,7′-tetrahydro-2H,2′H-spiro[naphthalene-1,5′-[1,4]oxazepine]-7-yl)-5-cyanopicolinamide]	240	–
NC1=N[C@@]2(CCCc3ccc(NC(=O)c4ccc(Cl)cn4)cc32)C(F)(F)COC1 [Example 48, (R)—N-(3′-Amino-6′,6′-difluoro-3,4,6′,7′-tetrahydro-2H,2′H-spiro[naphthalene-1,5′-[1,4]oxazepine]-7-yl)-5-chloropicolinamide]	450	–
N#Cc1ccc(C(=O)Nc2ccc3c(c2)[C@@]2(CCO3)N=C(N)COCC2(F)F)nc1 [Example 49, (R)—N-(3′-Amino-6′,6′-difluoro-6′,7′-dihydro-2′H-spiro[chroman-4,5′-[1,4]oxazepine]-6-yl)-5-cyanopicolinamide]	830	–
NC1=N[C@@]2(CCOc3ccc(NC(=O)c4ccc(Cl)cn4)cc32)C(F)(F)COC1 [Example 50, (R)—N-(3′-Amino-6′,6′-difluoro-6′,7′-dihydro-2′H-spiro[chroman-4,5′-[1,4]oxazepine]-6-yl)-5-chloropicolinamide]	2130	–
NC1=N[C@@]2(CCOc3ccc(-c4cncc(Cl)c4)cc32)C(F)(F)COC1 [Example 54, (R)-6-(5-Chloropyridin-3-yl)-6′,6′-difluoro-6′,7′-dihydro-2′H-spiro[chroman-4,5′-[1,4]oxazepin]-3′-amine]	1160	–
